Experimental data from PMC6381124, “Aplysinopsin-type and Bromotyrosine-derived Alkaloids from the South China Sea Sponge Fascaplysinopsis reticulata” (Scientific Reports, 2019).

Experiments:
[1] = system: human cervical cancer (HeLa) cell lines; test: Cytotoxicity assay (MTT method) against HeLa cell lines; format: cell-based; conditions: HeLa cells
Procedure: (§1) The cytotoxicity assay of the isolated compounds were evaluated against human lung carcinoma (A549), human cervical cancer (HeLa), human leukemia (K562), and human T-cell leukemia (Jurkat) cell lines using the MTT method with Doxorubicin as the positive control.

[2] = Cytotoxicity assay (MTT method) against Jurkat cell lines; format: cell-based; conditions: human, Jurkat cells (human T-cell leukemia), Doxorubicin as positive control
Procedure: as §1

Compound | IC50 [1] [µM] | IC50 [2] [nM]
CN1C(=O)N(C)C(O)(CC2(O)C(=O)Nc3ccccc32)C1=O (single isomer, unassigned; (-)) [(−)-3, (−)-oxoaplysinopsin C] | 61.6 | 
CN1C(=O)N(C)C(O)(CC2(O)C(=O)Nc3ccccc32)C1=O (single isomer, unassigned; (+)) [(+)-3, (+)-oxoaplysinopsin C] | 27 | 
COC(=O)NCCCCCNC(=O)C1=NO[C@]2(C=C(Br)C(OC)=C(Br)[C@@H]2O)C1 [Compound 19, Subereamolline D] |  | 880
